How the values were obtained:
ENPP1 [1] = biological target: T1, ENPP1 (Homo sapiens (Human), UniProt P22413); experiment: ATP-Glo enzymatic assay (ATP substrate, AMP-Glo readout); type: biochemical; details: 25° C. for 60 min, 50 mM Tris pH 8.8
Protocol: (§1) Example A: Enzymatic Assay
(§2) • 1. Diluted compounds in DMSO by hand for 11 points, 3 folds dilution. Then transferred 0.02 μL compounds to 384 assay plate by ECHO. • 2. Added 2 μL specified concentration of ENPP1 to 384 assay plate. Centrifuged 1000 RPM for 1 min. • 3. Added 2 μL specified concentration of ATP to the assay plate. Centrifuged 1000 RPM for 1 min. • 4. Incubated at 25° C. for 60 min. • 5. Added 4 μL AMP-Glo Reagent to the assay plates. • 6. Centrifuged 1000 RPM for 1 min, incubate at 25° C. for 1 hours. • 7. Added 8 μL Kinase Detection Reagent to the assay plates. • 8. Centrifuged 1000 RPM for 1 min, incubated at 25° C. for 1 hours. The final assay reaction mixture contained a buffer of 50 mM Tris pH 8.8, 250 mM NaCl and 0.1% BSA • 9. Read on Envision for US LUM as RLU. • 10. Analyzed the raw data using the equation (V. Data analysis). cGAMP-Glo Assay: • 1. Diluted compounds in DMSO by hand for 11 points, 3 folds dilution. Then transferred 0.02 μL compounds to 384 assay plate by ECHO. • 2. Added 2 μL specified concentration of ENPP1 to 384 assay plate, centrifuged 1000 RPM for 1 min. • 3. Added 2 μL specified concentration of 2′3′-cGAMP to the assay plate, centrifuged 1000 RPM for 1 min. • 4. Incubated at 25° C. for 60 min. • 5. Added 4 μL AMP-Glo Reagent to the assay plates. • 6. Centrifuged 1000 RPM for 1 min, incubated at 25° C. for 1 hours. • 7. Added 8 μL Kinase Detection Reagent to the assay plates. • 8. Centrifuged 1000 RPM for 1 min, incubate at 25° C. for 1 hours. The final assay reaction mixture contained a buffer of 50 mM Tris pH 8.8, 250 mM NaCl and 0.1% BSA • 9. Read on Envision for US LUM as RLU. • 10. Analyzed the raw data using the equation (V. Data analysis).

ENPP1 [2] = biological target: T1, ENPP1; experiment: cGAMP-Glo enzymatic assay (2′3′-cGAMP substrate, AMP-Glo readout); type: biochemical; details: substrate 2′3′-cGAMP; 25° C. for 60 min; 50 mM Tris pH 8.8
Protocol: as §1, §2

T1 sequence (P22413 whole entry, species assumed): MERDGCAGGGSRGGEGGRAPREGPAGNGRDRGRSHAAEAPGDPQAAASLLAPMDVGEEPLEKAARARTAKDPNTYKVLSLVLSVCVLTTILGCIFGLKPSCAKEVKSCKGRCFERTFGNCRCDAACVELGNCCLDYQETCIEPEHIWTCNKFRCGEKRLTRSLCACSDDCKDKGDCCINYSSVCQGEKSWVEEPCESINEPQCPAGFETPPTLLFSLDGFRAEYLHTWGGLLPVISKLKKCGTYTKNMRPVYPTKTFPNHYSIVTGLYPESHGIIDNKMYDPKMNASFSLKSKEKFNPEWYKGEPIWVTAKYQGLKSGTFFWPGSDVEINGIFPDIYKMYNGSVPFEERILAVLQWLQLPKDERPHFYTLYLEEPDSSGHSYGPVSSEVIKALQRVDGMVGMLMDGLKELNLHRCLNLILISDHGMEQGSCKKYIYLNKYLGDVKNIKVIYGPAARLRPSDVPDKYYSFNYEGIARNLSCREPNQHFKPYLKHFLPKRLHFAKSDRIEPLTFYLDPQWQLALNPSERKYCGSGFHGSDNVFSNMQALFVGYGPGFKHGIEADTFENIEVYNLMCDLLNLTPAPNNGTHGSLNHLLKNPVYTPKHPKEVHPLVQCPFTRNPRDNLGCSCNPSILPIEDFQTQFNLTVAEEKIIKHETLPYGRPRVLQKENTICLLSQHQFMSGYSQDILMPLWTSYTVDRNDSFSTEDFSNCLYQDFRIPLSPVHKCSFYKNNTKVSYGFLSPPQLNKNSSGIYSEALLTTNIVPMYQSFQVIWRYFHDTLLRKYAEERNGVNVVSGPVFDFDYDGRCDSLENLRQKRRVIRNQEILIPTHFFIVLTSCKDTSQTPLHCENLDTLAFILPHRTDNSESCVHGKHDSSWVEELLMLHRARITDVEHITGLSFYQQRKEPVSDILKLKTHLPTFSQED

| Structure (SMILES) | IC50 (ENPP1 [1]) [nM] | IC50 (ENPP1 [2]) [nM] |
| --- | --- | --- |
| Cc1ncc2nc(C)n(Cc3c(F)cc(S(N)(=O)=O)cc3F)c2c1-c1ccc(F)cc1 [Example 46, 3,5-difluoro-4-((7-(4-fluorophenyl)-2,6-dimethyl-1H-imidazo[4,5-c]pyridin-1-yl)methyl)benzenesulfonamide] | < 1 | < 1 |
| Cc1ncc2nc(C)n(Cc3c(F)cc(S(N)(=O)=O)cc3F)c2c1C1CC1 [Example 52, 4-((7-cyclopropyl-2,6-dimethyl-1H-imidazo[4,5-c]pyridin-1-yl)methyl)-3,5-difluorobenzenesulfonamide] | < 1 | < 1 |
| Cc1ncc2nc(C3CC3)n(Cc3ccc(S(N)(=O)=O)cn3)c2c1-c1ccccc1 [Example 53, 6-((2-cyclopropyl-6-methyl-7-phenyl-1H-imidazo[4,5-c]pyridin-1-yl)methyl)pyridine-3-sulfonamide] | < 1 | < 1 |
| Cc1ncc2nc(C3CC3)n(Cc3ccc(S(N)(=O)=O)nc3)c2c1-c1ccccc1 [Example 54, 5-((2-cyclopropyl-6-methyl-7-phenyl-1H-imidazo[4,5-c]pyridin-1-yl)methyl)pyridine-2-sulfonamide] | < 1 | < 1 |
| Cc1cc(Cn2c(C3CC3)nc3cnc(C)c(-c4ccccc4)c32)ccc1S(N)(=O)=O [Example 55, 4-((2-cyclopropyl-6-methyl-7-phenyl-1H-imidazo[4,5-c]pyridin-1-yl)methyl)-2-methylbenzenesulfonamide] | < 1 | < 1 |
| COc1ncc2c(c1-c1ccccc1)n(Cc1c(F)cc(S(N)(=O)=O)cc1F)c(=O)n2C [Example 56, 3,5-difluoro-4-((6-methoxy-3-methyl-2-oxo-7-phenyl-2,3-dihydro-1H-imidazo[4,5-c]pyridin-1-yl)methyl)benzenesulfonamide] | < 1 | < 1 |
| COc1ncc2c(c1-c1ccccc1)N(Cc1c(F)cc(S(N)(=O)=O)cc1F)C(=O)C2 [Example 57, 3,5-difluoro-4-((6-methoxy-2-oxo-7-phenyl-2,3-dihydro-1H-pyrrolo[3,2-c]pyridin-1-yl)methyl)benzenesulfonamide] | < 1 | < 1 |
| Cc1ncc2nc(C)n(Cc3c(F)cc(S(N)(=O)=O)cc3F)c2c1C1=CCCC1 [Example 58, 4-((7-(cyclopent-1-en-1-yl)-2,6-dimethyl-1H-imidazo[4,5-c]pyridin-1-yl)methyl)-3,5-difluorobenzenesulfonamide] | < 1 | < 1 |
| Cc1ncc2c(c1-c1ccccc1)n(Cc1c(F)cc(S(N)(=O)=O)cc1F)c(=O)n2C [Example 59, 4-((3,6-dimethyl-2-oxo-7-phenyl-2,3-dihydro-1H-imidazo[4,5-c]pyridin-1-yl)methyl)-3,5-difluorobenzenesulfonamide] | < 1 | < 1 |
| Cc1ncc2nc(CN3CCCC3)n(Cc3c(F)cc(S(N)(=O)=O)cc3F)c2c1-c1ccccc1 [Example 60, 3,5-difluoro-4-((6-methyl-7-phenyl-2-(pyrrolidin-1-ylmethyl)-1H-imidazo[4,5-c]pyridin-1-yl)methyl)benzenesulfonamide] | < 1 | < 1 |
| COc1ncc2c(c1C1=CCCC1)n(Cc1c(F)cc(S(N)(=O)=O)cc1F)c(=O)n2C [Example 61, 4-((7-(cyclopent-1-en-1-yl)-6-methoxy-3-methyl-2-oxo-2,3-dihydro-1H-imidazo[4,5-c]pyridin-1-yl)methyl)-3,5-difluorobenzenesulfonamide] | < 1 | < 1 |
| Cc1ncc2c(c1C1=CCCC1)n(Cc1c(F)cc(S(N)(=O)=O)cc1F)c(=O)n2C [Example 62, 4-((7-(cyclopent-1-en-1-yl)-3,6-dimethyl-2-oxo-2,3-dihydro-1H-imidazo[4,5-c]pyridin-1-yl)methyl)-3,5-difluorobenzenesulfonamide] | < 1 | < 1 |
| Cc1ncc2nc(C)n(Cc3c(F)cc(S(N)(=O)=O)cc3F)c2c1C [Example 63, 3,5-difluoro-4-((2,6,7-trimethyl-1H-imidazo[4,5-c]pyridin-1-yl)methyl)benzenesulfonamide] | < 1 | < 1 |
| CC#Cc1c(C)ncc2nc(C)n(Cc3c(F)cc(S(N)(=O)=O)cc3F)c12 [Example 64, 4-((2,6-dimethyl-7-(prop-1-yn-1-yl)-1H-imidazo[4,5-c]pyridin-1-yl)methyl)-3,5-difluorobenzenesulfonamide] | < 1 | < 1 |
| Cc1ncc2nc(C)n(Cc3ccc(S(N)(=O)=O)nc3)c2c1-c1ccccc1 [Example 66, 5-((2,6-dimethyl-7-phenyl-1H-imidazo[4,5-c]pyridin-1-yl)methyl)pyridine-2-sulfonamide] | < 1 | < 1 |
| COc1ncc2nc(C)n(Cc3ccc(S(N)(=O)=O)cn3)c2c1-c1ccccc1 [Example 74, 6-((6-methoxy-2-methyl-7-phenyl-1H-imidazo[4,5-c]pyridin-1-yl)methyl)pyridine-3-sulfonamide] | < 1 | < 1 |

Other lines, results leading:

| IC50 (ENPP1 [1]) [nM] | IC50 (ENPP1 [2]) [nM] | Structure (SMILES) |
| --- | --- | --- |
| < 1 | < 1 | Cc1ncc2nc(CF)n(Cc3c(F)cc(S(N)(=O)=O)cc3F)c2c1-c1ccccc1 [Example 47, 3,5-difluoro-4-((2-(fluoromethyl)-6-methyl-7-phenyl-1H-imidazo[4,5-c]pyridin-1-yl)methyl)benzenesulfonamide] |
| < 1 | < 1 | CCc1ncc2nc(C)n(Cc3c(F)cc(S(N)(=O)=O)cc3F)c2c1-c1ccccc1 [Example 48, 4-((6-ethyl-2-methyl-7-phenyl-1H-imidazo[4,5-c]pyridin-1-yl)methyl)-3,5-difluorobenzenesulfonamide] |
| < 1 | < 1 | Cc1ncc2nc(CN(C)C)n(Cc3c(F)cc(S(N)(=O)=O)cc3F)c2c1-c1ccccc1 [Example 49] |
| < 1 | < 1 | Cc1ncc2nc(CC(F)(F)F)n(Cc3c(F)cc(S(N)(=O)=O)cc3F)c2c1-c1ccccc1 [Example 50, 3,5-difluoro-4-((6-methyl-7-phenyl-2-(2,2,2-trifluoroethyl)-1H-imidazo[4,5-c]pyridin-1-yl)methyl)benzenesulfonamide] |
| < 1 | < 1 | Cc1ncc2nc(CC3CC3)n(Cc3c(F)cc(S(N)(=O)=O)cc3F)c2c1-c1ccccc1 [Example 51, 4-((2-(cyclopropylmethyl)-6-methyl-7-phenyl-1H-imidazo[4,5-c]pyridin-1-yl)methyl)-3,5-difluorobenzenesulfonamide] |
| < 1 | < 1 | Cc1ncc2nc(C)n(Cc3ccc(S(N)(=O)=O)cn3)c2c1-c1ccccc1 [Example 65, 6-((2,6-dimethyl-7-phenyl-1H-imidazo[4,5-c]pyridin-1-yl)methyl)pyridine-3-sulfonamide] |
| < 1 | < 1 | Cc1ncc2nc(C(F)(F)F)n(Cc3ccc(S(N)(=O)=O)cn3)c2c1-c1ccccc1 [Example 67, 6-((6-methyl-7-phenyl-2-(trifluoromethyl)-1H-imidazo[4,5-c]pyridin-1-yl)methyl)pyridine-3-sulfonamide] |
| < 1 | < 1 | Cc1ncc2nc(C)n(Cc3ncc(S(N)(=O)=O)cc3F)c2c1-c1ccccc1 [Example 68, 6-((2,6-dimethyl-7-phenyl-1H-imidazo[4,5-c]pyridin-1-yl)methyl)-5-fluoropyridine-3-sulfonamide] |
| < 1 | < 1 | Cc1ncc2nc(C(F)(F)F)n(Cc3ncc(S(N)(=O)=O)cc3F)c2c1-c1ccccc1 [Example 69, 5-fluoro-6-((6-methyl-7-phenyl-2-(trifluoromethyl)-1H-imidazo[4,5-c]pyridin-1-yl)methyl)pyridine-3-sulfonamide] |
| < 1 | < 1 | Cc1ncc2nc(C3CC3)n(Cc3ncc(S(N)(=O)=O)cc3F)c2c1-c1ccccc1 [Example 70, 6-((2-cyclopropyl-6-methyl-7-phenyl-1H-imidazo[4,5-c]pyridin-1-yl)methyl)-5-fluoropyridine-3-sulfonamide] |
| < 1 | < 1 | Cc1ncc2nc(C(F)F)n(Cc3ccc(S(N)(=O)=O)cn3)c2c1-c1ccccc1 [Example 71] |
| < 1 | < 1 | Cc1ncc2nc(C(F)F)n(Cc3ncc(S(N)(=O)=O)cc3F)c2c1-c1ccccc1 [Example 72, 6-((2-(difluoromethyl)-6-methyl-7-phenyl-1H-imidazo[4,5-c]pyridin-1-yl)methyl)-5-fluoropyridine-3-sulfonamide] |
| < 1 | < 1 | COc1ncc2nc(C)n(Cc3ncc(S(N)(=O)=O)cc3F)c2c1-c1ccccc1 [Example 73, 5-fluoro-6-((6-methoxy-2-methyl-7-phenyl-1H-imidazo[4,5-c]pyridin-1-yl)methyl)pyridine-3-sulfonamide] |

From patent US20250101019A1 (Insilico Medicine IP Limited, priority 2022, published 2025)
